For one series, the system named is rat diaphragm muscle. Description: Protein degradation in incubated rat diaphragm. As to the method:
Rat diaphragm muscle was cut into quarters and incubated in medium containing a mixture of amino acids, insulin, inhibitors of lysosomal and calcium dependent proteolysis, and MG 101 at the concentrations shown in FIG. 2. After 1 hour, ^3 H-phenylalanine was added and the incubation continued for 2 hours. Under these conditions, the ATP-dependent ubiquitin pathway is largely responsible for muscle protein degradation. After incubation, the tissue was homogenized and free tyrosine of the homogenate and medium was assayed separately. ^3 -phenylalanine incorporation into protein was also measured. Values are the means +SE of data from 7 animals. Protein synthesis was calculated from the incorporation of ^3 H-phenylalanine, and net protein breakdown was calculated from the release of tyrosine into the incubation medium. The total rate of protein breakdown is calculated from the equation:
Total protein breakdown=Net protein breakdown+Protein synthesis

The test system of series [1] is mouse B lymphoblastoid cell line (LB27.4). Description: MHC-I antigen presentation, intact cells (OVA loaded by hypotonic lysis of pinosomes). The note with it: 50 μM MG 101 in media; FIG. 6. In kind it is cell-based. As to the method:
Antigen-presenting cells (APCs)--mouse B lymphoblastoid cell line (LB27.4)--were washed free of serum and loaded with an ovalbumin peptide (residues 257-263), which corresponds to the sequence these cells naturally generate and present. The APCs were incubated 1 hr at 37° C., electroporated with antigen, incubated 10 min on ice and washed. The antigen loaded cells were incubated 2 hrs at 37° C., fixed with paraformaldehyde, and washed. MG 101 at the concentrations indicated in FIG. 5 was present in all steps prior to fixation. APCs were assayed for antigen presentation as described in Rock et al., J. Immunol. 145:804-811 (1990) and Carbone et al., J. Exp Med. 171:377-387 (1990). […] In the left panel, APCs were treated with (open circles) or without (closed circles) MG 101 and electroporated with ovalbumin. In the right panel, APCs were treated with (open circles) or without (closed circles) MG 101 and electroporated with ovalbumin peptide. Conditions were the same as in Example 7, except that (1) in one group of cells (referred to as MG 101 in media) MG 101 (50 μM) was omitted from the antigen load while in a parallel group (referred to as MG 101 in Ag load) MG 101 (50 μM) was included in the antigen load; and (2) OVA was introduced into the cytoplasm by hypotonic lysis of pinosomes (3) instead of electroporation.

Molecules are shown by their SMILES. “Also recorded” adds a separate entry of the source. Non-standard residues stand in square brackets, D forms with d. Residues, ends and D or L forms follow the SMILES beside them. Nle = CCCC[C@H](N)C(=O)O

`CCCC[C@@H](C=O)NC(=O)[C@H](CC(C)C)NC(=O)[C@H](CC(C)C)NC(C)=O` [MG 101, Ac-Leu-Leu-Nle-H] (Ac-Leu-Leu-[Nle]-aldehyde): in the series with rat diaphragm muscle, the “Amino acid pools in incubated muscle” value is recorded as “nor does it significantly alter amino acid pools”. In the series with rat diaphragm muscle (3H-phenylalanine incorporation), the “Protein synthesis in incubated muscle” value is “does not inhibit protein synthesis”. Besides, in the series with rat diaphragm muscle (lysosomal and calcium dependent proteolysis inhibited, FIG. 2), the “Protein degradation in incubated rat diaphragm” value is given as “inhibits the breakdown of muscle protein; also recorded: inhibition of protein degradation”. For the same compound, the “Antigen presentation from ovalbumin in intact cells” value in series [1] was “can enter into living cells and inhibit antigen processing; also recorded: inhibits presentation of antigen from ovalbumin”.

Source of the values: patent US5693617A, “Inhibitors of the 26s proteolytic complex and the 20s proteasome contained therein” (ProScript, Inc., priority 1995, dated 1997).
